Measured values reported in PubChem BioAssay AID1949 (Southern Research Institute, 2009).
Values after ≈ are worked out from the molar mass of the structure shown. Inconclusive results are not listed. Active and inactive are the calls of the source. How the calls were made is not given here.

Test system: M. tuberculosis H37Rv growth inhibition
Assay: Mycobacterium tuberculosis H37Rv growth inhibition, cell based, confirmatory dose response (AID 1949);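 further: bacteria grown 7 days with compound before Alamar blue readout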

Q: For `COc1ccc2nc(NC(=O)C(Sc3ccccc3)c3ccccc3)sc2c1` (stereo not drawn), which IC50 is on record?
A: 4.87 µg/mL (≈ 12 µM)

Q: With `O=C(NC(=S)N1CCN(C/C=C/c2ccccc2)CC1)c1ccc(Cl)cc1` as the compound, how does the IC50 read?
A: 0.39 µg/mL (≈ 0.975 µM)

Q: Which IC50 does the source give for `N#Cc1c(C(F)(F)F)cc(-c2cccs2)nc1SCC(O)CN1CCSCC1` (stereo not drawn) here?
A: 10.9 µg/mL (≈ 24.6 µM)

Q: Which IC50 does the source give for `O=C(Nc1ccc(Nc2ccccc2)cc1)C(Cl)Cl` here?
A: 6.79 µg/mL (≈ 23 µM)

Q: For `Cc1ccccc1NC(=O)c1c(NC(=O)CN2CCN(C)CC2)sc2c1CCC(C(C)(C)C)C2` (stereo not drawn), which IC50 is on record?
A: 40.2 µg/mL (≈ 83.3 µM)

Q: `Cc1cc(=O)oc2cc(OCC(=O)OC3CCCCC3)ccc12` was tested. Which IC50 did it give?
A: 1.47 µg/mL (≈ 4.65 µM)

Q: For `CCn1cc(C(=O)O)c(=O)c2cc(F)c(N3CCN(C(=S)Nc4ccc(Cl)cc4)CC3)cc21`, which IC50 is on record?
A: 24.1 µg/mL (≈ 49.3 µM)

Q: With `CSc1nsc(SCC(=O)c2ccccc2)n1` as the compound, how does the IC50 read?
A: 4.45 µg/mL (≈ 15.8 µM)

Q: How did the IC50 turn out when `Cc1ccccc1NC(=O)C(Cc1ccccc1)NC(=O)c1ccccc1` (stereo not drawn) was run?
A: 37.5 µg/mL (≈ 105 µM)

Q: With `CC12CCC(C(=O)Oc3cccc4cccnc34)(CC1=O)C2(C)C` (stereo not drawn) as the compound, how does the IC50 read?
A: 1.57 µg/mL (≈ 4.85 µM)

Q: With `CC1CCN(c2nnnc3c2sc2nc(N4CCOCC4)c4c(c23)CCCC4)CC1` as the compound, how does the IC50 read?
A: > 50 µg/mL (inactive)

Q: How did the IC50 turn out when `Fc1cc(Br)cc2c1NC(c1cccnc1)C1CC=CC21` (stereo not drawn) was run?
A: > 50 µg/mL (inactive)

Q: Which IC50 does the source give for `CCC(C)c1ccc(O)c(NC(=S)NC(=O)c2cncc(Br)c2)c1` (stereo not drawn) here?
A: < 0.1 µg/mL

Q: How did the IC50 turn out when `O=C(Oc1ccc(Cl)c2cccnc12)c1ccccc1Br` was run?
A: > 50 µg/mL (inactive)

Q: `CC1C(c2ccccc2)=[N+]([O-])C(C)(c2ccc(F)cc2)N1O` (stereo not drawn) was tested. Which IC50 did it give?
A: > 50 µg/mL (inactive)

Q: With `CCc1nc2sc(C(=O)NCc3ccc(F)cc3)c(N)c2c(C(F)(F)F)c1C` as the compound, how does the IC50 read?
A: 2.61 µg/mL (≈ 6.34 µM)

Q: How did the IC50 turn out when `COc1cccc2cc(C(=O)Oc3ccc(Cl)cc3)c(=O)oc12` was run?
A: > 50 µg/mL (inactive)

Q: Which IC50 does the source give for `CCCS(=O)(=O)c1nnnn1-c1cccc(OC)c1` here?
A: 0.65 µg/mL (≈ 2.3 µM)

Q: Which IC50 does the source give for `CC1=CC(C)(C)Nc2ccc(OC(=O)c3cccs3)cc21` here?
A: 3.02 µg/mL (≈ 10.1 µM)

Q: Which IC50 does the source give for `CSc1nc2nc3c(c(=O)n2[nH]1)CCCC3` here?
A: 2.96 µg/mL (≈ 12.5 µM)

Q: With `CSc1ccc(/C=C/c2nc(-c3ccccc3O)n[nH]2)cc1` as the compound, how does the IC50 read?
A: 4.5 µg/mL (≈ 14.5 µM)

Q: Which IC50 does the source give for `O=C(CC1CCCCC1)c1c(O)c2ccccc2oc1=O` here?
A: > 50 µg/mL (inactive)

Q: `CC(C)(C)c1cc(Cl)c(O)c(NC(=S)NC(=O)c2cncc(Br)c2)c1` was tested. Which IC50 did it give?
A: < 0.1 µg/mL

Q: `Cc1ccc(CSCC(=O)Nc2ccc(Cl)c(Cl)c2)cc1` was tested. Which IC50 did it give?
A: 3.06 µg/mL (≈ 8.99 µM)

Q: For `CNCCCOc1ccc(Cl)cc1C(C)(C)C`, which IC50 is on record?
A: 7.95 µg/mL (≈ 31.1 µM)

Q: How did the IC50 turn out when `CCOc1ccc(NCCC(=O)c2ccc3c(c2)OCO3)cc1` was run?
A: 3.32 µg/mL (≈ 10.6 µM)

Q: Which IC50 does the source give for `CCOc1ccc(OCC(=O)Nc2cccc(F)c2)cc1` here?
A: < 0.1 µg/mL

Q: With `COc1cc(SC)ccc1C(=O)NCCOc1ccc(F)cc1` as the compound, how does the IC50 read?
A: 12.1 µg/mL (≈ 36.2 µM)

Q: How did the IC50 turn out when `CCOC(=O)N1CCc2c(sc(NC(=O)c3ccc([N+](=O)[O-])o3)c2C(=O)Nc2ccc(OCC)cc2)C1` was run?
A: 5.64 µg/mL (≈ 10.7 µM)

Q: How did the IC50 turn out when `O=C1C(=O)N(CCc2ccccc2)c2ccc(Cl)cc21` was run?
A: 4.73 µg/mL (≈ 16.6 µM)

Q: With `CC(Oc1ccc(C(C)(C)C)cc1)c1nc(-c2ccncc2)no1` (stereo not drawn) as the compound, how does the IC50 read?
A: 22.8 µg/mL (≈ 70.6 µM)

Q: `COc1cc(NC(=O)c2ccc(Br)o2)ccc1NC(=O)c1ccccc1Cl` was tested. Which IC50 did it give?
A: 6.8 µg/mL (≈ 15.1 µM)

Q: With `CSc1nc(C)cc(OCC(=O)Nc2ccc(Cl)cc2)n1` as the compound, how does the IC50 read?
A: 6.69 µg/mL (≈ 20.7 µM)

Q: How did the IC50 turn out when `COc1ccc(C(=O)c2ccc(N3CCN(C)CC3)c([N+](=O)[O-])c2)c2ccccc12` was run?
A: 5.57 µg/mL (≈ 13.7 µM)

Q: For `CC(Oc1ccc(C(=O)NC2CCCCC2)cc1)C(=O)OCc1ccccc1Cl` (stereo not drawn), which IC50 is on record?
A: 0.95 µg/mL (≈ 2.28 µM)

Q: With `O=[N+]([O-])c1ccc(NC(=S)NCc2ccc(Cl)c(Cl)c2)cc1` as the compound, how does the IC50 read?
A: 1.84 µg/mL (≈ 5.17 µM)

Q: With `Cn1nnc(NC(=O)COc2ccc(C3CCCCC3)cc2)n1` as the compound, how does the IC50 read?
A: 2.85 µg/mL (≈ 9.04 µM)

Q: With `Cc1ccc(OCC(O)CN2CCN(CC(O)COc3ccc(C)cc3C)CC2)c(C)c1` (stereo not drawn) as the compound, how does the IC50 read?
A: 3.27 µg/mL (≈ 7.39 µM)

Q: `CCOC(=O)COc1ccc2c(C)c(CC(=O)OC)c(=O)oc2c1C` was tested. Which IC50 did it give?
A: 7.36 µg/mL (≈ 21.1 µM)

Q: For `CCn1cc(C(=O)O)c(=O)c2cc(F)c(N3CCN(C(=S)NC)CC3)cc21`, which IC50 is on record?
A: 11.8 µg/mL (≈ 30.1 µM)

Q: `COc1cccc(C(=O)Nc2ccc(Cl)c(C(F)(F)F)c2)c1OC` was tested. Which IC50 did it give?
A: 14.5 µg/mL (≈ 40.3 µM)

Q: `COC(=O)COc1ccc(NC(=O)c2ccccc2C)cc1` was tested. Which IC50 did it give?
A: < 0.1 µg/mL

Q: For `Cc1ccc2oc(=O)n(CCCOc3ccc(Cl)cc3)c2c1`, which IC50 is on record?
A: 2.98 µg/mL (≈ 9.38 µM)

Q: With `N#Cc1c(NC(=S)NC(=O)c2ccc(Cl)cc2Cl)sc2c1CCCCC2` as the compound, how does the IC50 read?
A: 3.36 µg/mL (≈ 7.92 µM)

Q: How did the IC50 turn out when `Cc1ccccc1Nc1nc(-c2ccccn2)cs1` was run?
A: < 0.1 µg/mL

Q: With `CC12CC3CC(C)(C1)CC(CNCc1ccccc1O)(C3)C2` as the compound, how does the IC50 read?
A: 2.89 µg/mL (≈ 9.65 µM)

Q: With `CC1CCc2c(sc3ncnc(Nc4ccc(OCc5ccccc5)cc4)c23)C1` (stereo not drawn) as the compound, how does the IC50 read?
A: > 50 µg/mL (inactive)

Q: Which IC50 does the source give for `CCOC(=O)COc1ccc2c(=O)c(Oc3cccc(OC)c3)coc2c1` here?
A: 27.2 µg/mL (≈ 73.4 µM)

Q: With `O=C(NNC(=S)NCc1ccc(F)cc1)c1ccncc1` as the compound, how does the IC50 read?
A: 5.78 µg/mL (≈ 19 µM)

Q: For `N#Cc1cc2c(ccc3ccccc32)oc1=O`, which IC50 is on record?
A: 2.12 µg/mL (≈ 9.58 µM)

Q: Which IC50 does the source give for `CCn1c(NC(=S)Nc2ccccc2)nc2ccccc21` here?
A: > 50 µg/mL (inactive)

Q: `Clc1ccc(OCCOCCNCc2ccccc2)c2ccccc12` was tested. Which IC50 did it give?
A: 6.11 µg/mL (≈ 17.2 µM)

Q: How did the IC50 turn out when `Cc1c(C(=O)Nc2ccc(Cl)cc2)sc(N)c1C(=O)OC(C)C` was run?
A: 7.88 µg/mL (≈ 22.3 µM)

Q: How did the IC50 turn out when `O=[N+]([O-])c1ncn(Cc2ccc(F)cc2Cl)n1` was run?
A: 6.92 µg/mL (≈ 27 µM)

Q: With `Cc1ccc(C)c(OCC(=O)Nc2ccc(C(=O)OC(C)C)cc2)c1C` as the compound, how does the IC50 read?
A: 3.77 µg/mL (≈ 10.6 µM)

Q: With `CCCN1C(=O)c2cccc3cc([N+](=O)[O-])cc(c23)C1=O` as the compound, how does the IC50 read?
A: < 0.1 µg/mL

Q: With `CC(C)(C)c1cc(Cl)ccc1OCCCCn1ccnc1` as the compound, how does the IC50 read?
A: 1.41 µg/mL (≈ 4.6 µM)

Q: Which IC50 does the source give for `COc1ccc(C2CC(=O)C3=C(C2)NC(C)=C(C(=O)Nc2ccccc2C)C3c2coc3ccc(C)cc3c2=O)cc1OC` (stereo not drawn) here?
A: 3.7 µg/mL (≈ 6.26 µM)
